Source: patent publication US20240398784A1, “C-LINKED ISOQUINOLINE AMIDES AS LRRK2 INHIBITORS, PHARMACEUTICAL COMPOSITIONS, AND USES THEREOF” (Merck Sharp & Dohme LLC, priority 2021, published 2024)

Molecular target: LRRK2 G2019S (Homo sapiens, UniProt Q5S007, G2019S)
Test: LRRK2 G2019S Km ATP LanthaScreen assay
Format: biochemical
Details: for IC50: read-out: LRRK2 pIC50 (converted)

Chain of LRRK2 G2019S (Q5S007 whole entry G2019S): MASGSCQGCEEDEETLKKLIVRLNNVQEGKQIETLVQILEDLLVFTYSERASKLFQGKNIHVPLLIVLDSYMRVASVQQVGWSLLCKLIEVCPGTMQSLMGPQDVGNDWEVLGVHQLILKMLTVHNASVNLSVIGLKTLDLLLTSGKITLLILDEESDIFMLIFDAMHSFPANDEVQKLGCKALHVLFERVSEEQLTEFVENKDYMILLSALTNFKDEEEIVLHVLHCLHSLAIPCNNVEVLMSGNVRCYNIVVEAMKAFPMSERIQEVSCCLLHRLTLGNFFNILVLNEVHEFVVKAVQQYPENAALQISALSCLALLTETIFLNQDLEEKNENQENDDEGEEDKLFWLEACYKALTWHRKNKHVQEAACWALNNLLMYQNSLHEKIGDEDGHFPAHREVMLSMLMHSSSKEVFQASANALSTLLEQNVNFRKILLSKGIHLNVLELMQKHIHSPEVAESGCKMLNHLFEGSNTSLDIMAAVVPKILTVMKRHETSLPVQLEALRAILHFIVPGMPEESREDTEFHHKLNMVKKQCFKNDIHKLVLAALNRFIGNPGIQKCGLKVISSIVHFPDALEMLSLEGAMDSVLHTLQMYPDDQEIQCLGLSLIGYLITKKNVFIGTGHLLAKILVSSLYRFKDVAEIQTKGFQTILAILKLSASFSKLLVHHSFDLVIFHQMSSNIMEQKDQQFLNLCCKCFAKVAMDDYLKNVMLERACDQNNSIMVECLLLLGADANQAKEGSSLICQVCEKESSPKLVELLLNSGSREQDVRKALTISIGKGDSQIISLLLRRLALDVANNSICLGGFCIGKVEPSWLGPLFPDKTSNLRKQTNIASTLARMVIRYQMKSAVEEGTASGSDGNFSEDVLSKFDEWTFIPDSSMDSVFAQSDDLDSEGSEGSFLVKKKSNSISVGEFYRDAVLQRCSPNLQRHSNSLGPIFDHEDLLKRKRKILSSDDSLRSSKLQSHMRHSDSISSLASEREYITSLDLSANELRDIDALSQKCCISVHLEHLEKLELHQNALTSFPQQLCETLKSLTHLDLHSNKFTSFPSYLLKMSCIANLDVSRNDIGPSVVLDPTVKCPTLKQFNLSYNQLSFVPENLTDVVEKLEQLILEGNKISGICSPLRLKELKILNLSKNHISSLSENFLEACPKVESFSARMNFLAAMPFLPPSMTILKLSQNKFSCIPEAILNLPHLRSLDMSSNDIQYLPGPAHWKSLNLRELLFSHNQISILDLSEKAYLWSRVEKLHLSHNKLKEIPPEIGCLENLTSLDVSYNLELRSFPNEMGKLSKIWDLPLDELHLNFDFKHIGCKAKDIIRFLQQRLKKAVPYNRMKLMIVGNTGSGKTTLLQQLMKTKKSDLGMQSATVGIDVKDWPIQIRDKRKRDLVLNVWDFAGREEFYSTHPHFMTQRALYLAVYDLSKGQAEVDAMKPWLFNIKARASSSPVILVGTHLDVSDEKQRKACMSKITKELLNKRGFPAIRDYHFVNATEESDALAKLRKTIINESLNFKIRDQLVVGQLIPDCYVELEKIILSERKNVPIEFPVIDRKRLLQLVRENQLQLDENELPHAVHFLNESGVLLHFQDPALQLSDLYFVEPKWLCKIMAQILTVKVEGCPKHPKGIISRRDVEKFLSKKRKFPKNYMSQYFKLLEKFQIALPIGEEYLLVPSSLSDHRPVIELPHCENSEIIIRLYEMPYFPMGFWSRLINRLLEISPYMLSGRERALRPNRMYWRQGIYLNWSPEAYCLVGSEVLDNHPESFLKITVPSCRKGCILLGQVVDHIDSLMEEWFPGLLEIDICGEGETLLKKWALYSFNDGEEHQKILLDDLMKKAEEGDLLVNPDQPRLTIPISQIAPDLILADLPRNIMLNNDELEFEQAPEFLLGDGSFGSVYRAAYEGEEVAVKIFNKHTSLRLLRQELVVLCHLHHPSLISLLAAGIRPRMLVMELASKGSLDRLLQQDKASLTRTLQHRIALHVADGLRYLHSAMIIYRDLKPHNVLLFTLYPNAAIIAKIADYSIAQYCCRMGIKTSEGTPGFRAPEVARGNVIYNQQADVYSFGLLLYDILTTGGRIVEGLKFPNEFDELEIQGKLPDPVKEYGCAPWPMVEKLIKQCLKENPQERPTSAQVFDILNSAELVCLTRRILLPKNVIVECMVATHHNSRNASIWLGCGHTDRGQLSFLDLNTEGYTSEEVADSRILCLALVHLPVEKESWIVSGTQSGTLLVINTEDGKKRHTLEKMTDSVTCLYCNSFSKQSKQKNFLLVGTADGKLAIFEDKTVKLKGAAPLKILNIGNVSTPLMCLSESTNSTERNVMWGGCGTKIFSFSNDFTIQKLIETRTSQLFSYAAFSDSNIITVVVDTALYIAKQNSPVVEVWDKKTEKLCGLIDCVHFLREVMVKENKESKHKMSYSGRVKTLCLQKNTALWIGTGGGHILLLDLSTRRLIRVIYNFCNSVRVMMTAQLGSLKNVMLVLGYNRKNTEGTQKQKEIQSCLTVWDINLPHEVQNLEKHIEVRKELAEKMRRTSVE

Row | SMILES | IC50 | LRRK2 pIC50
1 | Cc1cc2cnc(NC(=O)C3CC34CCOCC4)cc2cc1C1CCN(C2(C)COCC2C)CC1 (single isomer, unassigned) [Ex-15.4, N-(6-(1-(3,4-dimethyltetrahydrofuran-3-yl)piperidin-4-yl)-7-methylisoquinolin-3-yl)-6-oxaspiro[2.5]octane-1-carboxamide] | 0.0813 nM | 
2 | Cn1cc(C(C)(C)C(=O)Nc2cc3cc(C4CCN(C5(C)COCC5F)CC4)c(Cl)cc3cn2)cn1 (single isomer, unassigned) [Ex-6.55, N-(7-chloro-6-(1-(4-fluoro-3-methyltetrahydrofuran-3-yl)piperidin-4-yl)isoquinolin-3-yl)-2-methyl-2-(1-methyl-1H-pyrazol-4-yl)propenamide] | 447 nM | 
3 | N#CC1(c2ccc3cnc(NC(=O)C4C5Oc6cc(Cl)ncc6C54)cc3c2)CC12CC2 (single isomer, unassigned) [Ex-1.33, (1S,1aR,6bS or 1R,1aS,6bR)-4-chloro-N-(6-((R or S)-1-cyanospiro[2.2]pentan-1-yl)isoquinolin-3-yl)-1a,6b-dihydro-1H-cyclopropa[4,5]furo[3,2-c]pyridine-1-carboxamide] | 28.2 nM | 
4 | CC1(N2CCC(c3cc4cc(NC(=O)C5CC5C#N)ncc4cc3Cl)CC2)COC1 (stereo not shown) [Ex-2.8] | 8.32 nM | 
5 | Cc1cc2cnc(NC(=O)C3CC3c3ccccn3)cc2cc1C1CCN(C2(C)CCOC2)CC1 (single isomer, unassigned) [Ex-16.9, N-(7-methyl-6-(1-(3-methyltetrahydrofuran-3-yl)piperidin-4-yl)isoquinolin-3-yl)-2-(pyridin-2-yl)cyclopropane-1-carboxamide] | 0.132 nM | 
6 | O=C(Nc1cc2cc(C3CCC(N4CC(F)C4)CC3)c(Cl)cc2cn1)C1CC1c1ccccn1 (single isomer, unassigned) [Ex-5.2, (1R,2R or 1S,2S)-N-(7-chloro-6-((cis or trans)-4-(3-fluoroazetidin-1-yl)cyclohexyl)isoquinolin-3-yl)-2-(pyridin-2-yl)cyclopropane-1-carboxamide] | 661 nM | 
7 | O=C(Nc1cc2cc(C3CCN(C4COC4)CC3)c(Cl)cc2cn1)C1CC12CC2 (stereo not shown) [Ex-9.1] |  | 8.69
8 | Cc1cc2cnc(NC(=O)C3CC34CCOC4)cc2cc1C1CCN(C2(C)COCC2F)CC1 (single isomer, unassigned) [Ex-15.12, N-(6-(1-(4-fluoro-3-methyltetrahydrofuran-3-yl)piperidin-4-yl)-7-methylisoquinolin-3-yl)-5-oxaspiro[2.4]heptane-1-carboxamide] | 85.1 nM | 
9 | Cc1cc2cnc(NC(=O)C3C(C)C3c3cnn(C)c3)cc2cc1C1CCN(C2(C)COCC2F)CC1 (single isomer, unassigned) [Ex-16.7, N-(6-(1-(4-fluoro-3-methyltetrahydrofuran-3-yl)piperidin-4-yl)-7-methylisoquinolin-3-yl)-2-methyl-3-(1-methyl-1H-pyrazol-4-yl)cyclopropane-1-carboxamide] | 0.0813 nM | 
10 | CC1(N2CCC(c3cc4cc(NC(=O)CC5CCOCC5)ncc4cc3Cl)CC2)COCC1O (single isomer, unassigned) [Ex-1.39, N-(7-chloro-6-(1-((3R,4R or 3S,4S)-4-hydroxy-3-methyltetrahydrofuran-3-yl)piperidin-4-yl)isoquinolin-3-yl)-2-(tetrahydro-2H-pyran-4-yl)acetamide] | 0.398 nM | 
11 | CC1(C)CC(C(=O)Nc2cc3cc(C4CCC(N5CCC(F)C5)CC4)c(Cl)cc3cn2)CCO1 (single isomer, unassigned) [Ex-5.16, N-(7-chloro-6-(4-(3-fluoropyrrolidin-1-yl)cyclohexyl)isoquinolin-3-yl)-2,2-dimethyltetrahydro-2H-pyran-4-carboxamid] | 389 nM | 
12 | CC1(N2CCC(c3cc4cc(NC(=O)Cc5cnn(C(F)F)c5)ncc4cc3Cl)CC2)COCC1O (stereo not shown) [Ex-3.11] | 0.631 nM | 
13 | CC1(N2CCC(c3cc4cc(NC(=O)C5CC5c5ccncc5)ncc4cc3Cl)CC2)COCC1O (single isomer, unassigned) [Ex-4.21, N-(7-chloro-6-(1-(4-hydroxy-3-methyltetrahydrofuran-3-yl)piperidin-4-yl)isoquinolin-3-yl)-2-(pyridin-4-yl)cyclopropane-1-carboxamide] | 0.0813 nM | 
14 | O=C(Nc1cc2cc(C3CCN(C4COC4)CC3)c(Cl)cc2cn1)[C@@H]1CCCCO1 [Ex-1.10, (S)-N-(7-chloro-6-(1-(oxetan-3-yl)piperidin-4-yl)isoquinolin-3-yl)tetrahydro-2H-pyran-2-carboxamide] | 3.98 nM | 
15 | O=C(Nc1cc2cc(C3CCN(C4COC4)CC3)c(Cl)cc2cn1)C1CC(OC(F)F)C1 (single isomer, unassigned) [Ex-2.3] | 5.62 nM | 
16 | Cn1cc(C(=O)Nc2cc3cc(C4CCN([C@]5(C)COC[C@@H]5O)CC4)c(Cl)cc3cn2)cn1 (single isomer, unassigned) [Ex-12.9, N-(7-chloro-6-(1-(4-hydroxy-3-methyltetrahydrofuran-3-yl)piperidin-4-yl)isoquinolin-3-yl)-1-methyl-1H-pyrazole-4-carboxamide] | 141 nM | 
17 | Cc1cc2cnc(NC(=O)C3CCOC(C)(C)C3)cc2cc1C1CCN(C2(C)COCC2O)CC1 (stereo not shown) [Ex-2.50] | 7.41 nM | 

Row | SMILES | IC50 | LRRK2 pIC50
18 | Cn1cc(C(=O)Nc2cc3cc(C4CCN([C@]5(C)COC[C@@H]5O)CC4)c(Cl)cc3cn2)cn1 (single isomer, unassigned) [Ex-12.7, N-(7-chloro-6-(1-(4-hydroxy-3-methyltetrahydrofuran-3-yl)piperidin-4-yl)isoquinolin-3-yl)-1-methyl-1H-pyrazole-4-carboxamide] | 21.9 nM | 
19 | N#CC1(c2ccc3cnc(NC(=O)C4CC45CCOC5)cc3c2)CC12CC2 (stereo not shown) [Ex-2.65] | 25.7 nM | 
20 | CC1C(C(=O)Nc2cc3cc(C4CCN(C5(C)COCC5O)CC4)c(Cl)cc3cn2)C1c1ccccn1 (single isomer, unassigned) [Ex-4.53, N-(7-chloro-6-(1-(4-hydroxy-3-methyltetrahydrofuran-3-yl)piperidin-4-yl)isoquinolin-3-yl)-2-methyl-3-(pyridin-2-yl)cyclopropane-1-carboxamide] | 3.98 nM | 
21 | CC(CC#N)c1cc2cc(NC(=O)C3CC3c3ccccn3)ncc2cc1Cl (single isomer, unassigned) [Ex-9.22, N-(7-chloro-6-(1-cyanopropan-2-yl)isoquinolin-3-yl)-2-(pyridin-2-yl)cyclopropane-1-carboxamide] | 129 nM | 
22 | O=C(Nc1cc2cc(C3CCN(C4COC4)CC3)c(Cl)cc2cn1)C1CC1(F)F (single isomer, unassigned) [Ex-1.5, (R or S)-N-(7-chloro-6-(1-(oxetan-3-yl)piperidin-4-yl)isoquinolin-3-yl)-2,2-difluorocyclopropane-1-carboxamide] | 5.89 nM | 
23 | C[C@H]1CC(F)(F)CC[C@H]1C(=O)Nc1cc2cc(C3CCN(C4COC4)CC3)c(Cl)cc2cn1 [Ex-1.11, (1R,2S)-N-(7-chloro-6-(1-(oxetan-3-yl)piperidin-4-yl)isoquinolin-3-yl)-4,4-difluoro-2-methylcyclohexane-1-carboxamide] | 39.8 nM | 
24 | CC1(N2CCC(c3cc4cc(NC(=O)C5CC56CC6)ncc4cc3Cl)CC2)COCC1F (stereo not shown) [Ex-2.96] | 0.0813 nM | 
25 | CC1(N2CCC(c3cc4cc(NC(=O)C5CC56CCC6)ncc4cc3Cl)CC2)COCC1O (single isomer, unassigned) [Ex-4.7, N-(7-chloro-6-(1-(4-hydroxy-3-methyltetrahydrofuran-3-yl)piperidin-4-yl)isoquinolin-3-yl)spiro[2.3]hexane-1-carboxamide] | 0.0813 nM | 
26 | CC(C)(O)C1CC(C(=O)Nc2cc3cc(C4CCN(C5(C)COCC5O)CC4)c(Cl)cc3cn2)C1 (stereo not shown) [Ex-2.14] | 0.186 nM | 
27 | CCC(=O)N1CCC(C(=O)Nc2cc3cc(C4(C#N)CC45CC5)ccc3cn2)CC1 (single isomer, unassigned) [Ex-1.32, N-(6-((R or S)-1-cyanospiro[2.2]pentan-1-yl)isoquinolin-3-yl)-1-propionylpiperidine-4-carboxamide] | 2.34 nM | 
28 | CCC1C(C(=O)Nc2cc3cc(C4CCN(C5(C)COCC5O)CC4)c(Cl)cc3cn2)C1c1ccccn1 (single isomer, unassigned) [Ex-4.55, N-(7-chloro-6-(1-(4-hydroxy-3-methyltetrahydrofuran-3-yl)piperidin-4-yl)isoquinolin-3-yl)-2-ethyl-3-(pyridin-2-yl)cyclopropane-1-carboxamide] | 30.9 nM | 
29 | N#CC1(c2ccc3cnc(NC(=O)C4CC4c4ccncc4)cc3c2)CC12CC2 (stereo not shown) [Ex-2.41] | 1.86 nM | 
30 | CC1(N2CCC(c3cc4cc(NC(=O)Cn5ccc(C(F)(F)F)n5)ncc4cc3Cl)CC2)COCC1O (stereo not shown) [Ex-3.10] | 1 nM | 
31 | CC1(N2CCC(c3cc4cc(NC(=O)C5CC56CCOC6)ncc4cc3Cl)CC2)COCC1F (single isomer, unassigned) [Ex-6.4, (R or S)-N-(7-chloro-6-(1-((3R,4R or 3S,4S)-4-fluoro-3-methyltetrahydrofuran-3-yl)piperidin-4-yl)isoquinolin-3-yl)-5-oxaspiro [2.4] heptane-1-carboxamide] | 141 nM | 
32 | CCC1C(C(=O)Nc2cc3cc(C4CCC(N5CC(C)(F)C5)CC4)c(Cl)cc3cn2)C1c1cnn(C)c1 (single isomer, unassigned) [Ex-11.2, (1R,2R,3R) or (1R,2S,3R) or (1S,2R,3S) or (1S,2S,3S)-N-(7-chloro-6-((cis or trans)-4-(3-fluoro-3-methylazetidin-1-yl)cyclohexyl)isoquinolin-3-yl)-2-ethyl-3-(1-methyl-1H-pyrazol-4-yl)cyclopropane-1-carboxamide] | 9.12 nM | 
33 | CCOC1CC2(C1)CC2C(=O)Nc1cc2cc(C3CCN(C4(C)COCC4O)CC3)c(Cl)cc2cn1 (single isomer, unassigned) [Ex-4.30, N-(7-chloro-6-(1-(4-hydroxy-3-methyltetrahydrofuran-3-yl)piperidin-4-yl)isoquinolin-3-yl)-5-ethoxyspiro[2.3]hexane-1-carboxamide] | 3.02 nM | 
34 | CC1(N2CCC(c3cc4cc(NC(=O)c5cnn(C6CC6)c5Cl)ncc4cc3Cl)CC2)COCC1F (single isomer, unassigned) [Ex-1.51, 5-chloro-N-(7-chloro-6-(1-((3R,4R or 3S,4S)-4-fluoro-3-methyltetrahydrofuran-3-yl)piperidin-4-yl)isoquinolin-3-yl)-1-cyclopropyl-1H-pyrazole-4-carboxamide] | 0.112 nM | 
